The subject of one test is anaesthetised rats. In words: Rhythmic bladder-voiding contractions induced by bladder filling in anaesthetised rats. Type of test: in vivo, rat. As to conditions: compound alone. As for the experimental part: Female Sprague-Dawley rats weighing 225-275 g (Crl: CDo Br, Charles River Italia) were used. The animals were housed with free access to food and water and maintained on a forced 12-hour alternating light-dark cycle at 22-24° C. for at least one week, except during the experiment. The activity on rhythmic bladder voiding contractions was evaluated according to the method of Dray J., Pharmacol. Methods, 13:157, 1985, with some modifications as in Guarneri (Guarneri, Pharmacol. Res. 27:173, 1993. Briefly, the rats were anaesthetised by subcutaneous injection of 1.25 g/kg (5 ml/kg) urethane, after which the urinary bladder was catheterised via the urethra using PE 50 polyethylene tubing filled with physiological saline. The catheter was tied in place with a ligature around the external urethral orifice and was connected to conventional pressure transducers (Statham P23 ID/P23 XL). […] The bladder was then filled via the recording catheter by incremental volumes of warm (37° C.) saline until reflex bladder-voiding contractions occurred (usually 0.8-1.5 ml). For intravenous injection of bioactive compounds, PE 50 polyethylene tubing filled with physiological saline was inserted into the jugular vein. Tested compounds were administered or co-administered in solution in a final volume of 0.5 ml/kg.
From the cystometrogram, the number of contractions recorded 15 minutes before (basal values) and after treatment, as well as the mean amplitude of these contractions (mean height of the peaks in mmHg), was evaluated.
Since most compounds produced an effect that was relatively rapid in onset and led to a complete cessation of bladder contractions, bioactivity was conveniently estimated by measuring the duration of bladder quiescence (i.e., the length of the time in minutes during which no contractions occurred: disappearance time=DT). The administered doses (alone or in combination) of the tested compounds were chosen on the basis of previously published results obtained with the same compounds in the utilized model (Testa et al., J. Pharmacol. Exp. Ther. 290: 1258, 1999; Leonardi et al., J. Pharmacol. Exp. Ther. 299: 1027, 2001; Testa et al., BJU Int. 87: 256, 2001) or of their affinity for the 5HT1A or 5-HT1B receptor.

Test [1] deals with T1, human 5HT1A-serotonergic receptor (Homo sapiens, UniProt P08908).
T1 construct: expressed in transfected cells; host or cells: HeLa (human), stably transfected; cell membranes
T1 sequence (P08908 1-422): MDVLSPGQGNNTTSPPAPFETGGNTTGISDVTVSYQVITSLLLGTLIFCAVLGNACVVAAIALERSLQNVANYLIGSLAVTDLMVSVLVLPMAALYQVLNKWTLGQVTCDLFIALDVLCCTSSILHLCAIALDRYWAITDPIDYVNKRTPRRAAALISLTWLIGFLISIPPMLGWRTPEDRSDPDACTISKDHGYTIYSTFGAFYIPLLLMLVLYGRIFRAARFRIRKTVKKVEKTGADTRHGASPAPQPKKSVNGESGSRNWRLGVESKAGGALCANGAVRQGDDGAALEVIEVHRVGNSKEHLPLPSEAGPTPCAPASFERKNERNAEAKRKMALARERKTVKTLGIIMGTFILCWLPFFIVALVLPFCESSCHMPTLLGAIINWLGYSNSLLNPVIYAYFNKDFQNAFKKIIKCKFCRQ
As to conditions: literature reference given in table; read-out: Binding affinity at 5HT1A receptors, Ki; cited from earlier work.

The target in test [2] is T1, human 5HT1A-serotonergic receptor. Kind of test: Radioligand binding to recombinant 5-HT1A receptors ([3H]8-OH-DPAT, HeLa cell membranes). As to conditions: Recordati data on file; read-out: Binding affinity at 5HT1A receptors, Ki. As to the method: Genomic clone G-21 coding for the human 5HT1A-serotonergic receptor was stably transfected in a human cell line (HeLa). HeLa cells were grown as monolayers in Dulbecco's modified Eagle medium (DMEM), containing 10% fetal bovine serum, gentamicin ([…]) and 5% carbon dioxide, at 37° C. The cells were detached from the growth flask at 95% confluence by a cell scraper and were lysed in cold 5 mM Tris and 5 mM EDTA buffer (pH 7.4). The homogenates were centrifuged at 40000×g×20 minutes and the pellets were resuspended in a small volume of cold 5 mM Tris and 5 mM EDTA buffer (pH 7.4) and immediately frozen and stored at −70° C. until use. On the day of experiment, the cell membranes were resuspended in incubation buffer: 50 mM Tris HCl (pH 7.4), 2.5 mM MgCl2, […] (Fargin et al., Nature 335, 358, 1988). The membranes were incubated in a fmal volume of 1 ml for 30 minutes at 30° C. with 1 nM [^3H]8—OH-DPAT, in the absence or presence of the test compounds. Non-specific binding was determined in the presence of 10 μM 5-HT. […]
The affinity of the tested compounds was evaluated as inhibition of specific binding of the radioligand to 5-HT1A receptors (IC50) by using the non-linear curve-fitting program Allfit (De Lean et al., Am. J. Physiol. 235: E97, 1978). […]

SMILES strings stand for the structures. Read-outs that look alike come from different tables or passages of the source.

Take `COc1ccccc1N1CCN(CCN(C(=O)C2CCCCC2)c2ccccn2)CC1` [WAY 100635, N-[2-[4-(2-methoxyphenyl)piperazin-1-yl]ethyl]-N-(2-pyridyl)cyclohexanecarboxamide]: the “disappearance time (DT) of bladder contractions” value (shortened to “disappearance time (DT)”) with anaesthetised rats (0.01 mg/kg i.v.) was 10.39 ± 1.45 min. Broadly, the Ki is a measure of affinity in units of concentration, obtained from inhibition or displacement. Consider `COc1ccccc1N1CCN(CCN(C(=O)C2CCCCC2)c2ccccc2[N+](=O)[O-])CC1` [REC 15/3079, 1-[N-(2-nitrophenyl)-N-cyclohexylcarbonyl-2-aminoethyl]-4-(2-methoxyphenyl)piperazine], for which the Ki in test [1] is 0.2 nM. Further, the “disappearance time (DT)” value in the test on anaesthetised rats (0.03 mg/kg i.v.) is 2.26 ± 0.51 min. With `COc1ccc(NC(=O)c2ccc(-c3ccc(-c4noc(C)n4)cc3C)cc2)cc1OCCN(C)C` [SB 216641], the “disappearance time (DT)” value in the test with anaesthetised rats (0.3 mg/kg i.v.) amounted to 1.50 ± 0.28 min. Turning to `O=C1c2ccccc2S(=O)(=O)N1CCCCN1CCN(c2cc(Cl)cc3c2OCCO3)CC1` [Rec 0/031 1-DU 125530, 2-[4-[4-(7-chloro-2,3-dihydro-1,4-benzodioxin-5-yl)piperazin-1-yl]butyl]-1,2-benzisothiazol-3(2H)-one 1,1-dioxide], in the test on anaesthetised rats (0.01 mg/kg i.v.), the “disappearance time (DT)” value was 6.96 ± 1.05 min. For `Cc1nc(-c2ccc(-c3ccc(C(=O)N4CCc5cc6c(cc54)C4(CCN(C)CC4)CO6)cc3)c(C)c2)no1` [SB 224289], in the test on anaesthetised rats (1.0 mg/kg i.v.), the “disappearance time (DT)” value came out at 2.40 ± 0.46 min. In the case of `OC(CCN1CCN(c2cccc3[nH]ccc23)CC1)(c1ccccn1)c1ccccn1` [Rec 27/0206, 1-[3-hydroxy-3,3 bis-(2-pyridyl)propyl]-4-(4-indolyl)piperazine], the inhibition constant (Ki) in test [2] is 4.75 nM. Also, in the test on anaesthetised rats (0.1 mg/kg i.v.), the “disappearance time (DT)” value stood at 9.29 ± 0.80 min.

(Values after patent publication US20050165025A1, “Combination therapy with 5HT 1A and 5HT 1B-receptor antagonists” (Recordati Ireland Ltd., priority 2004, published 2005).)
